In assay [1] the test system is cellules du carcinome pulmonaire de Lewis. Kind of assay: Survival and tumour growth in mice grafted with Lewis lung carcinoma, five diets (alkylglycerol 18:1 and/or DFMO, normal or polyamine-deficient diet). The format is in vivo, souris C57BL/6. The text has this:
Cette figure représente les variations de volume de tumeurs (en mm^3, indiqués en ordonnées) en fonction du nombre de jours (indiqués en abscisses) écoulés après la greffe de ladite tumeur chez des souris C57BL/6. Les souris sont greffées avec une tumeur solide de cellules du carcinome pulmonaire de Lewis.
Cette figure représente le pourcentage de survie (en ordonnées) de souris C57BL/6, en fonction du nombre de jours (en abscisses) écoulés après la greffe d'une tumeur solide de cellules du carcinome pulmonaire de Lewis. La représentation utilisée est sous forme de graphique de Kaplan-Meier, le test statistique Log-Rank est utilisé pour la comparaison de la survie (fiabilité p < 0,0001).
(§1) Des souris femelles C57BL/6, âgées de 8 semaines et pesant 20g (élevage Janvier, Le Genest St Isle, France) sont acclimatées 1 semaine avant le début de l'étude. La manipulation des animaux est réalisée en accord avec les directives éthiques pour l'expérimentation et selon les recommandations de l'Association Européenne de Recherche Biomédicale.
(§2) Les cellules de carcinome pulmonaire de Lewis (3LL) ont été obtenues auprès de l'ECACC (European collection of cell cultures) et greffées par injection intramusculaire dans les pattes postérieures de souris femelles C57BL/6 selon la méthode décrite précédemment (Hergueux J. et al., Exp. Cell Biol., 1983, 51(4), 181-191) pour produire des cellules tumorales. Après 20 jours, les cellules tumorales sont collectées et dispersées dans du PBS, comptées et diluées pour atteindre 1 ×10^6 cellules / 100 µL, avant d'être greffées dans les souris.
Le modèle animal (souris C57BL/5) et le modèle tumoral (carcinome de Lewis) sont décrits précédemment. Les souris sont greffées avec […] tumorales, par injection intramusculaire. […]

Assay [2] shares this test system. Kind of assay: Survival study by diet (PDD or PCD) and alkylglycerol 18:1 or olive oil, Lewis lung carcinoma graft. The conditions noted are these: for différence dans la valeur de survie médiane: Log-Rank; for valeur médiane de survie: 25 mice per group. Format: in vivo, souris C57BL/6.
Source text: Cette figure représente le pourcentage de survie (en ordonnées) de souris, en fonction du nombre de jours (en abscisses) écoulés après la greffe d'une tumeur solide de cellules du carcinome pulmonaire de Lewis. Les souris sont réparties en 2 groupes de 25 individus. Les deux groupes sont alimentés avec des régimes alimentaires différents. Les valeurs médianes de survie sont observées. La représentation utilisée est sous forme de graphique de Kaplan-Meier, le test statistique Log-Rank est utilisé pour la comparaison de la survie.
as §1, §2
Au premier jour de l'expérience, 0,1 ×10^6 cellules tumorales sont greffées par injection intramusculaire, à chaque souris. Les souris greffées sont réparties aléatoirement dans les cages par groupe de 25 individus.
Quatre groupes sont constitués, chacun comprenant 25 souris greffées avec des cellules tumorales. Les souris sont réparties dans 8 cages avec 12 à 13 individus par cage. Chaque groupe de souris comprend les individus de deux cages. Chaque groupe de souris est alimenté avec un régime alimentaire différent. La consommation d'aliments est suivie deux fois par semaine, et le nombre de décès deux fois par jour.
Les quatre types de régime alimentaire sont : • régime 1, aliment synthétique appauvri en polyamines (PDD) et enrichi en huile d'olive (20 g / kg d'aliment), • régime 2, aliment synthétique appauvri en polyamines (PDD) et enrichi en alkylglycérol 18 :1 (25 mg par jour et par souris), • régime 3, aliment synthétique contenant des polyamines (PCD), enrichi en huile d'olive (20 g / kg d'aliment), • régime 4, aliment synthétique contenant des polyamines (PCD), enrichi en alkylglycérol 18 :1 (25 mg par jour et par souris).

The test system of assay [3] is carcinome de Lewis. The experiment in a line: Antitumour agent Example 2: chemotherapy with PCD/PDD diets, DFMO and alkylglycerol C18:1, Lewis carcinoma graft. The format is in vivo, souris C57BL/5. Here is the method: Le modèle animal (souris C57BL/5) et le modèle tumoral (carcinome de Lewis) sont décrits précédemment. Les souris sont greffées avec 0,1 ×10^6 cellules tumorales, par injection intramusculaire.
Quatres ensembles d'animaux sont constitués : A, B, C et D. • L'ensemble A est traité avec une monochimiothérapie a forte dose (cyclophosphamide, 90 mg / kg / semaine). • L'ensemble B est traité avec une monochimiothérapie a faible dose (cyclophosphamide, 20 mg / kg / semaine). • L'ensemble C est traité avec une polychimiothérapie combinant trois agents antitumoraux (methotrexate, cyclophosphamide, vindesine). Le premier jour de l'expérience l'ensemble C est traité avec le methotrexate (1,7 mg / kg). Le second jour de l'expérience l'ensemble C est traité avec le cyclophosphamide (20 mg / kg). Le troisième jour de l'expérience l'ensemble C est traité avec la vindesine (0,25 mg/kg). • L'ensemble D est traité avec une solution saline (NaCl, 0,14 M), il s'agit d'un groupe témoin.
Pour chacun des 4 ensembles, les souris sont réparties en 8 groupes (soit 32 groupes au total) en fonction de leurs alimentations : • Le groupe 1a : aliment synthétique contenant des polyamines (PCD), • le groupe 1b : aliment synthétique contenant des polyamines (PCD), et avec une eau contenant du DFMO, • le groupe 1c : aliment synthétique contenant des polyamines (PCD), enrichi en alkylglycérol, • le groupe 1d : aliment synthétique contenant des polyamines (PCD), enrichi en alkylglycérol, et avec une eau contenant du DFMO, • le groupe 2a : aliment synthétique appauvri en polyamines (PDD), • le groupe 2b : aliment synthétique appauvri en polyamines (PDD), et avec une eau contenant du DFMO, • le groupe 2c : aliment synthétique appauvri en polyamines (PDD), enrichi en alkylglycérol, • le groupe 2d : aliment synthétique appauvri en polyamines (PDD), enrichi en alkylglycérol, et avec une eau contenant du DFMO,
L'alkylglycérol est le C 18 :1 (alcool sélachylique) et est mélangé à l'alimentation des souris (25 mg par jour et par souris). Le DFMO est mélangé à l'eau de boisson des souris (30 g/L). […]

The test system of assay [4] is néo vascularisation induite par le Matrigel. The experiment in a line: Matrigel plug angiogenesis test (haemoglobin content of the gel, VEGF-induced). The format is in vivo, souris C57BL/5. The conditions noted are these: PDD. The procedure:
Cette figure représente le pourcentage de concentration en hémoglobine dans du Matrigel (BD Biosciences) (en ordonnées), 10 jours après injection dudit Matrigel (500µL) à des souris.
La colonne du centre représente les souris témoins ayant été traitées avec du VEGF. Ces souris ont été greffées avec du Matrigel contenant du VEGF (50 ng/mL). Le pourcentage de concentration en hémoglobine est fixé arbitrairement à 100% et sert de référence pour quantifier les pourcentages des deux autres groupes.
La néo vascularisation induite par le Matrigel est dosée suivant une modification de la méthode de Kimura et al. (Cancer Sci. 2004, 95(9), 758-764). En résumé, tous les animaux ont été traités par injection sous-cutanée de Matrigel (500µL) contenant 32 unités/mL d'héparine et éventuellement 50 ng/mL de VEGF (Vascular Endothelial Growth Factor).
Le modèle animal (souris C57BL/5) et le Matrigel sont décrits précédemment.
Le Matrigel est injecté en sous-cutané (500 µL par injection) à trois groupes de 6 souris : • Groupe 1 : Matrigel sans VEGF, régime alimentaire appauvri en polyamines (PDD). • Groupe 2 : Matrigel avec VEGF, régime alimentaire appauvri en polyamines (PDD). • Groupe 3 : Matrigel avec VEGF, régime alimentaire appauvri en polyamines (PDD), enrichi en alkylglycérol 18 :1 (25 mg par jour et par souris)
Dix jours après injection les souris sont euthanasiées et le Matrigel est prélevé, pesé, photographié. Le Matrigel est ensuite dissocié mécaniquement dans du PBS, homogénéisé puis est mis dans une solution de Drabkin's pour le dosage de l'hémoglobine. Les solutions sont déposées dans des puits d'une plaque 96 puits contenant une solution de Drabkin's et lecture dans un lecteur de plaque à 540 nm.
La concentration en hémoglobine observe dans le Matrigel du groupe 2 est fixé arbitrairement à 100% et sert de référence lors des comparaisons avec les résultats obtenus avec les groupes 1 et 3 (Figure 8).

Setting [5] is: régime appauvri en polyamines (PDD), alkylglycérol 18 :1 25 mg / souris / jour and/or DFMO 30 g / L in drinking water, DFMO alone given with huile d'olive.
[6] abbreviates: cyclophosphamide à faible dose (20 mg / kg / semaine), animaux PDD + DFMO (30 g/L).

Consider `NCCCC(N)(C(=O)O)C(F)F` (racemic) [DFMO, D,L-2-(difluorométhyl)ornithine, reference compound], for which the “valeur médiane de survie” value in assay [1] (setting [5]) worked out at 35 jours.
`CCCCCCCC/C=C\CCCCCCCCOCC(O)CO` (stereo not shown) [alkylglycérol 18 :1, alcool sélachylique]: the “valeur médiane de survie” value in assay [1] (setting [5]) was determined as 30 jours; in assay [1] (régime contenant un taux normal de polyamines (PCD), alkylglycérol 18 :1 25 mg / souris / jour, days after tumour graft) it was 31 jours; in assay [2] (régime appauvri en polyamines (PDD, 10 µg / kg d'aliment), alkylglycérol 18 :1 25 mg / souris / jour or huile d'olive), 26 jours; in assay [2] (régime contenant des polyamines (PCD, 128 mg / kg d'aliment), alkylglycérol 18 :1 25 mg / souris / jour) it was 26 jours. For the same compound, the “différence dans la valeur de survie médiane” value in assay [2] (C18 :1 (PCD, régime 4) vs huile d'olive (PCD, régime 3), Figure 4) is “Aucune différence significative”; in assay [2] (C18 :1 (PDD, régime 2) vs C18 :1 (PCD, régime 4), Figure 7), “Aucune différence significative”; in assay [2] (C18 :1 (PDD, régime 2) vs huile d'olive (PCD, régime 3), Figure 5), “Aucune différence significative”; in assay [2] (C18 :1 (PDD, régime 2) vs huile d'olive (PDD, régime 1), Figure 3), “Aucune différence significative”. Also, the “influence sur la durée médiane de survie” value in assay [2] (overall conclusion of the four-diet survival study) is listed as “n'a pas d'influence significative”. Moreover, in assay [3] (C18 :1 25 mg par jour et par souris added to chemotherapy + PDD + DFMO), the “effect of C18 :1 intake on the benefit of chemotherapy” value was “amplifie les effets bénéfiques de la chimiothérapie”. Besides, the “effet anti angiogénique” value in assay [4] (Matrigel with VEGF) is on record as “observé”. In addition, the “réduction de l'angiogénèse” value in assay [4] (Matrigel with VEGF, C18 :1 25 mg par jour et par souris, vs VEGF group) is recorded as ~40%. The “concentration en hémoglobine dans le Matrigel” value in assay [4] (relative to VEGF group (50 ng/mL) fixed at 100%, 10 days after injection, alkylglycérol 18 :1 25 mg par jour et par souris, 6 mice) is 58,56%.
For `O=P1(N(CCCl)CCCl)NCCCO1` (stereo not shown) [cyclophosphamide], in assay [3] (setting [6]), the “dissémination métastatique pulmonaire” value was “efficace” and the “progression de la greffe tumorale” value was “efficace”.

The values are drawn from patent EP2440195B1, “USE OF ALKYLGLYCEROLS FOR PREPARING DRUGS” (Université de Rennes I, priority 2009, dated 2010).
